The test system of one assay is rhinovirus B14. The experiment in a line: In vitro determined against HRV-14 in a plaque reduction assay. The assay is classed as functional, human rhinovirus type 14. The note with it: Rhinovirus B. (Plaques are areas of infected cells; plaque reduction assays count them against a control.)
A further assay deals with Human rhinovirus 1A. The experiment in a line: In vitro determined against HRV-1A in a plaque reduction assay. The class given is functional.

Values after ≈ are worked out from the molar mass of the structure shown. Some results are limits rather than exact numbers.

As to `Cc1cc(CCC#CCOc2c(Cl)cc(C3=NCCO3)cc2Cl)on1`, the MIC in the assay on rhinovirus B14 was 0.26 µM (≈ 0.0986 µg/mL); with Human rhinovirus 1A it was over 8.2 µM.
Taken in the same sequence, the figures for `Cc1cc(CC/C=C\COc2c(Cl)cc(C3=NCCO3)cc2Cl)on1` were 3.9 µM (≈ 1.49 µg/mL) and 4.72 µM (≈ 1.8 µg/mL).
In the case of `Cc1cc(CCCOc2c(Cl)cc(C3=NCCO3)cc2Cl)on1`, the MIC turned out to be 8.14 µM (≈ 2.89 µg/mL) in the assay on rhinovirus B14 and 0.46 µM (≈ 0.163 µg/mL) against Human rhinovirus 1A.
The matching figures for `Cc1cc(CC/C=C/COc2c(Cl)cc(C3=NCCO3)cc2Cl)on1`: 0.44 µM (≈ 0.168 µg/mL) and 2.25 µM (≈ 0.858 µg/mL).
Taken in the same sequence, the figures for `Cc1cc(CCCCCOc2c(Cl)cc(C3=NCCO3)cc2Cl)on1` [WIN-54954] were 1.2 µM (≈ 0.46 µg/mL) and 2.5 µM (≈ 0.958 µg/mL).

The values above are taken from ChEMBL document CHEMBL1125551, “Conformationally restricted analogues of disoxaril: a comparison of the activity against human rhinovirus types 14 and 1A” (1992).
